Assay results reported in ChEMBL document CHEMBL1201862, “PubChem BioAssay data set” (2004).
The source made the active and inactive calls.

Tests used:
[1] = target: FAD-linked sulfhydryl oxidase ALR (Homo sapiens, UniProt P55789); assay: ALR-catalysed DTT oxidation blockers – biochemical, H2O2 detection, luminescence, cherry-pick, dose response (AID 493248)
[2] = target: T1, DNA repair protein RAD52 homolog (Homo sapiens, UniProt P43351); assay type: functional, biochemical
T1 sequence (P43351 whole entry): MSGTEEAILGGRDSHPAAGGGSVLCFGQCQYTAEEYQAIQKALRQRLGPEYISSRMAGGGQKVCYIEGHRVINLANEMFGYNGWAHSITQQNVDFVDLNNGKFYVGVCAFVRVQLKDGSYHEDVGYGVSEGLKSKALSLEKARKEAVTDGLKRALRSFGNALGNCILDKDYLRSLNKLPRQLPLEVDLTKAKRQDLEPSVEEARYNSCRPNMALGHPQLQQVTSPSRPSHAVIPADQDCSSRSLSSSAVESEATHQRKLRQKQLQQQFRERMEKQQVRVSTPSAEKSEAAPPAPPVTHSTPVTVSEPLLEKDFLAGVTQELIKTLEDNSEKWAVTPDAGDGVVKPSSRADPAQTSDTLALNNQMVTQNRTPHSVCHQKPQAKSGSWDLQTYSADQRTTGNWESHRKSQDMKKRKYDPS

[3] = target: Histone-lysine N-methyltransferase NSD2 (Homo sapiens, UniProt O96028); assay type: biochemical
Chain of Histone-lysine N-methyltransferase NSD2 (O96028 whole entry): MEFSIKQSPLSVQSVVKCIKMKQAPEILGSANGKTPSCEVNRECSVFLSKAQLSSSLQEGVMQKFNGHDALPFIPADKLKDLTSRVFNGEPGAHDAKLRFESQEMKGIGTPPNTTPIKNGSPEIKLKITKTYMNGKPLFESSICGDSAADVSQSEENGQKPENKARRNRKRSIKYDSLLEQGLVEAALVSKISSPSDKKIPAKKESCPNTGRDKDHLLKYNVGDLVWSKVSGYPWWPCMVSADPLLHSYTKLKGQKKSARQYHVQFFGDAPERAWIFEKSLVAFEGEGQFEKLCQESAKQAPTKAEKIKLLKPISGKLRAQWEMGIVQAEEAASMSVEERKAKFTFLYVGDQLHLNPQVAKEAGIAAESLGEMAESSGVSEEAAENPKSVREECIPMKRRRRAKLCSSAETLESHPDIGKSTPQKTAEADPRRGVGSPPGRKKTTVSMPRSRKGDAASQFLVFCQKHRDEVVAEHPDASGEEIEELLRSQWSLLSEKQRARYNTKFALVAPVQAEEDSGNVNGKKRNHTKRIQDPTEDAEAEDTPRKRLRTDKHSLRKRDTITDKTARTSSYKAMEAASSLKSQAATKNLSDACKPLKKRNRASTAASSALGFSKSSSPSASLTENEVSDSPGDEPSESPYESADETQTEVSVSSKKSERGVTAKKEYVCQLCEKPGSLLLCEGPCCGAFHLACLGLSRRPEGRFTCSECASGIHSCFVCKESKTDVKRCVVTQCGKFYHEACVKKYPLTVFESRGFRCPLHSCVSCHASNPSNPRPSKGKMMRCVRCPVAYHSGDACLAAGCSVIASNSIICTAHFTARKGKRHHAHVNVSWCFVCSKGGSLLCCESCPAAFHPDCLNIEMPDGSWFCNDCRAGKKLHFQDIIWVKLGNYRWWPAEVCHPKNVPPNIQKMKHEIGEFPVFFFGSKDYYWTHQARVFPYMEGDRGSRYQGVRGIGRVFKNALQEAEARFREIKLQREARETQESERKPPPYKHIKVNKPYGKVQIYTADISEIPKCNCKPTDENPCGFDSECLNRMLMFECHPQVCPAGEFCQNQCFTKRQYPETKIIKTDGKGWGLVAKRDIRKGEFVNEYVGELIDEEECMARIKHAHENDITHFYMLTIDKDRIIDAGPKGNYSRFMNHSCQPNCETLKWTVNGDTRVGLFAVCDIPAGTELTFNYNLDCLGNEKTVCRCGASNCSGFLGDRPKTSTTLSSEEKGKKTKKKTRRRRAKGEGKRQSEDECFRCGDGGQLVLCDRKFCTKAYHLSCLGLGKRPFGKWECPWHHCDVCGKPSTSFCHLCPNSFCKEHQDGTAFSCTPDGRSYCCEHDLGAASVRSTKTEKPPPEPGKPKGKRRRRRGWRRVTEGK

[4] = target: Long-chain-fatty-acid--AMP ligase FadD28 (Mycobacterium tuberculosis, UniProt P9WQ59); assay: Fluorescence polarization aasay to screen for inhibitors that compete for the binding of FadD28 to a bisubstrate Measured in Biochemical System Using Plate Reader - 2147-01_Inhibitor_Dose_CherryPick_Activity.; assay type: functional, Mycobacterium tuberculosis H37Rv
Chain of Long-chain-fatty-acid--AMP ligase FadD28 (P9WQ59 whole entry): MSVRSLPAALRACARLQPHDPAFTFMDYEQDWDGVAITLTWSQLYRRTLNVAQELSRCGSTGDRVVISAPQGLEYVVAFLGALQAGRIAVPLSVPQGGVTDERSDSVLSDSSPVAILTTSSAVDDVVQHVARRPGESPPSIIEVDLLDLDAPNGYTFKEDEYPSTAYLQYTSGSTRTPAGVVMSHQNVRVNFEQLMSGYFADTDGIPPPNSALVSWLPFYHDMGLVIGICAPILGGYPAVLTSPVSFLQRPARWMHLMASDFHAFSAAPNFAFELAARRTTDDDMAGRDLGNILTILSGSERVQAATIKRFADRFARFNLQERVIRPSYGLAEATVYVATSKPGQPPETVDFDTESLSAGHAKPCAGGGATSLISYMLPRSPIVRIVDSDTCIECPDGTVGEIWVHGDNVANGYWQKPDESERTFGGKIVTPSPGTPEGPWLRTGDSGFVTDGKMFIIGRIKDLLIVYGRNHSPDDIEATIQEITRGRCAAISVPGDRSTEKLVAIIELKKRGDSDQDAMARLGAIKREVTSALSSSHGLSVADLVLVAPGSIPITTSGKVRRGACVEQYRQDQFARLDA

Large T antigen = Large T antigen (Simian virus 40, UniProt P03070); assay type: functional, Betapolyomavirus macacae;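 further: Confirmatory-stage PubChem screen for compounds that inhibit SV40 T antigen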
Chain of Large T antigen (P03070 whole entry, the tested form may be a part): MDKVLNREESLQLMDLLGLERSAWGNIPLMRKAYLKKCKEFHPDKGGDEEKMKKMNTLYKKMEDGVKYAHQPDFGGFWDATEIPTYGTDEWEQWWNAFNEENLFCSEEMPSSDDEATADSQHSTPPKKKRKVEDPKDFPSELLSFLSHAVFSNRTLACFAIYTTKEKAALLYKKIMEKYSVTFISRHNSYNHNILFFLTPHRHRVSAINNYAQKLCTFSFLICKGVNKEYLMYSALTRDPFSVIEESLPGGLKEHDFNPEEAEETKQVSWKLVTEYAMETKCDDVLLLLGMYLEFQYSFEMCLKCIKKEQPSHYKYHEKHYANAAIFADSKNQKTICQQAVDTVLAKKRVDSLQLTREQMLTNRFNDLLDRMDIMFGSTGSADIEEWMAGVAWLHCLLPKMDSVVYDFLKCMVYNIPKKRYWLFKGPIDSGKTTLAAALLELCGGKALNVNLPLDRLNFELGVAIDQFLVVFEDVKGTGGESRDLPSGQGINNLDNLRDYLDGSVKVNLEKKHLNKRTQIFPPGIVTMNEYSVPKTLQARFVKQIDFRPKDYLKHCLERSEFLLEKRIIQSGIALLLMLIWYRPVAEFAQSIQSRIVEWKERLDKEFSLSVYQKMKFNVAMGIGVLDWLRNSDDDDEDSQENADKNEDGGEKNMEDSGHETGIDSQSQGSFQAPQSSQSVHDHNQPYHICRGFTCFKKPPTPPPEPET

[5] = blockers of HIV-1 envelope-mediated cell-cell fusion – cherry-pick, dose response (AID 652057); assay type: functional, cell-based
[6] = viability loss in CEM21 cells – cell-based, CellTiter-Glo luminescence, cherry-picked, cytotoxicity control for viral fusion inhibitor project, dose response (AID 652042); assay type: functional;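 further: potency for signal decrease meaning cytotoxicity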
[7] = target: Endoplasmic reticulum aminopeptidase 1 (Homo sapiens, UniProt Q9NZ08); assay: inhibition of human ERAP1 enzyme activity – biochemical, cherry-pick, set 2, plate reader, dose response (AID 743314)
Chain of Endoplasmic reticulum aminopeptidase 1 (Q9NZ08 whole entry): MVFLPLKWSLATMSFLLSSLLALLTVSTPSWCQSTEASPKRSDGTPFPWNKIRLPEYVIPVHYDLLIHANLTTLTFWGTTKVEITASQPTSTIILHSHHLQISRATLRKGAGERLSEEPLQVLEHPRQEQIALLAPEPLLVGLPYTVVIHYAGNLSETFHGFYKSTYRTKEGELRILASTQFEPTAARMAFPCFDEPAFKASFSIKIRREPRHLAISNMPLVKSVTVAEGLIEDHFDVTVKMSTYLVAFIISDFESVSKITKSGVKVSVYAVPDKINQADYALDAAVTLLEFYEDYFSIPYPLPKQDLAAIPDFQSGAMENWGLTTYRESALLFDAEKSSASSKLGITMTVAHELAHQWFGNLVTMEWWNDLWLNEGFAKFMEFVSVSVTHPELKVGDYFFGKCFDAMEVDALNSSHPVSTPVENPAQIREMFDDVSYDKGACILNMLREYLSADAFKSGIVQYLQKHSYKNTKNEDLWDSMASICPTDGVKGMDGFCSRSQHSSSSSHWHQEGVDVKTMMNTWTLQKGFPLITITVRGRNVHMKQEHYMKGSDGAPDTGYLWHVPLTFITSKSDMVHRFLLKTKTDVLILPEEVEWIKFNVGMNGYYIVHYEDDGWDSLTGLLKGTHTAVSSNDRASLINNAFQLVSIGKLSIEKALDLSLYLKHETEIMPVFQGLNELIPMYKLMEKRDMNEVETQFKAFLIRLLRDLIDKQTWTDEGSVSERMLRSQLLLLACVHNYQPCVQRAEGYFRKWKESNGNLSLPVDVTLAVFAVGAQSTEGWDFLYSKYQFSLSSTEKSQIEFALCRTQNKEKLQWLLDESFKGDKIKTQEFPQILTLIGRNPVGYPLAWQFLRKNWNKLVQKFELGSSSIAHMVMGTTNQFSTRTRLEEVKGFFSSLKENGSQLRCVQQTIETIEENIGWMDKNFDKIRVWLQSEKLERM

[8] = general mammalian cell viability loss – inhibitor set, cherry-pick, set 2, cytotoxicity control for miR-122 modulator project, dose response (AID 720697); assay type: functional, cell-based
[9] = general mammalian cell viability loss – activator set, cherry-pick, cytotoxicity control for miR-122 modulator project, dose response (AID 720690); assay type: functional, cell-based;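 further: HEK293T human cells scored for general mammalian cytotoxicity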
[10] = viability of uninfected HEp-2 cells – cell-based, HTS, cytotoxicity control for RSV inhibitor project, dose response (AID 2410); assay type: functional; conditions: human respiratory syncytial virus
[11] = luciferase reporter signal suppression in cells – H4 neuroglioma cells, luminescence, dose response (AID 1990); assay type: functional, cell-based
[12] = Luminescence Cell-Based Dose Response HTS to Identify Inhibitors of 5'UTR Stem-Loop Driven Prion Protein mRNA Translation in H4 Neuroglioblastoma Cells. [Related pubchem assays: 1827 (Project Summary), 1813 (Primary HTS)]; assay type: functional
[13] = alpha-synuclein stem-loop luciferase translation blockers – H4 neuroglioma cells, luminescence, confirmation (AID 1988); assay type: functional, cell-based
Vero = assay: cells; assay type: functional, cell-based; conditions: Chlorocebus sabaeus
cells [14] = assay type: functional, cell-based
[15] = target: T2, Nuclear receptor subfamily 0 group B member 1 (Homo sapiens, UniProt P51843); assay type: functional, cell-based;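 further: HEK293T cells transfected with SF-1 and DAX-1 plus StAR promoter luciferase reporter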
T2 sequence (P51843 whole entry): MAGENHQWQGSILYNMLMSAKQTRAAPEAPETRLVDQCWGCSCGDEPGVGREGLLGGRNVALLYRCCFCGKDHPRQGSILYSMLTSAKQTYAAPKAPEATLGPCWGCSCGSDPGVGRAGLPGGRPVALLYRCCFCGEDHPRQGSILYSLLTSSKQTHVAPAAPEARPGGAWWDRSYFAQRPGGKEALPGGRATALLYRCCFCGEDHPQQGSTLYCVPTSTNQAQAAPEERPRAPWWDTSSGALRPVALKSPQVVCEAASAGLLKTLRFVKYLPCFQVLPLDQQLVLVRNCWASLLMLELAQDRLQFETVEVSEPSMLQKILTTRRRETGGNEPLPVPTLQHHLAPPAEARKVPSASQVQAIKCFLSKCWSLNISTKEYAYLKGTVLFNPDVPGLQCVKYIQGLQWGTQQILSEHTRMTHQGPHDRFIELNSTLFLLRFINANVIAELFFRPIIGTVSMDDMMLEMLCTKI

cells [16] = assay: cells
[17] = mouse embryonic fibroblast toxicity – cell-based, plate reader, dry powder, set 2, cytotoxicity control, dose response (AID 652280); assay type: functional; conditions: NIH3T3
[18] = T. cruzi growth inhibition in host cells, dose response, cell-based, plate reader, dry powder, set 2 (AID 652275); assay type: functional

Chain of FAD-linked sulfhydryl oxidase ALR (P55789 whole entry): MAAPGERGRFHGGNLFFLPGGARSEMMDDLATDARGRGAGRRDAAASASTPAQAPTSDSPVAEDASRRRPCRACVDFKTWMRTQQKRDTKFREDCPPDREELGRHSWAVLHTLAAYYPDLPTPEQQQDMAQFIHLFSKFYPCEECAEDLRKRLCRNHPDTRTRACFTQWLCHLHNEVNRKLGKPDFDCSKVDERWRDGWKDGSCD

For `CCN1CCN(c2ccc(N)cc2)CC1`, the AC50 [1] was 4.5 µM (active), the AC50 [2] was 1.47 µM (active) and the AC50 [3] was > 20 µM (inactive).

With `O=C(NCCSCc1ccc(Cl)cc1Cl)c1ccc(CN2CCOCC2)cc1` the AC50 [4] was 15.7 µM (active).

In the case of `CCN1CCN(c2ccc(N)cc2C)CC1`, the IC50 (Large T antigen) is reported as 6.6 µM (active), the AC50 [1] is reported as 1.73 µM (active) and the AC50 [2] is reported as 0.278 µM (active). For the same molecule, the AC50 [3] was > 20 µM (inactive).

With `COCCCNC(=O)c1sc2ncnc(N3CCc4ccccc4C3)c2c1C` the AC50 [5] was 3.98 µM (active) and the AC50 [6] was 6.66 µM (active).

With `O=C(NCc1ccccn1)[C@@H]1[C@@H](CO)[C@@H]2Cn3c(ccc(/C=C/c4ccccc4)c3=O)[C@H]1N2CC1CC1` the AC50 [7] was 7.58 µM (active).

For `C[C@@H]1CN([C@@H](C)CO)C(=O)Cc2cc(NS(=O)(=O)c3ccc(Cl)cc3)ccc2O[C@H]1CN(C)Cc1ccc(C(F)(F)F)cc1`, the AC50 [8] was < 0.195 µM (active) and the AC50 [9] was 33.8 µM (active).

For `Nc1cnn(C2OC(CO)C(O)C2O)c(=O)n1` (centres undefined), the CC50 [10] was 5.98 µM (active), the EC50 [11] was 14.3 µM (active) and the EC50 [12] was > 120 µM (not active). The EC50 [13] was 14.7 µM (active), the IC50 (Vero) was 11.8 µM (active) and the IC50 (cells [14]) was > 67.5 µM (inactive). For the same molecule, the IC50 [15] was > 22.5 µM (inactive) and the IC50 (cells [16]) was 1.91 µM (active).

With `CCOC(=O)c1ccc(NC(=S)N(CCN(C)C)Cc2cccs2)cc1` the AC50 [4] was > 100 µM (inactive).

With `OC[C@H]1[C@H](c2ccc(-c3cccc(F)c3)cc2)[C@@H]2CN(CCC(F)(F)F)CCCCN12` the AC50 [17] was 3.34 µM (active) and the AC50 [18] was 0.53 µM (active).
